Results reported in article PMC4667271, “Discovery of a Novel Inhibitor of the Protein Tyrosine Phosphatase Shp2” (Scientific Reports, 2015).
Residue numbers refer to the chain shown, from its start.

Columns and labels:
[1] = target: T1, Shp2 (Homo sapiens, UniProt Q06124); test: Kinetic analysis of Shp2 inhibition (Michaelis-Menten, Lineweaver-Burk); assay type: biochemical
T1 sequence (Q06124 1-593): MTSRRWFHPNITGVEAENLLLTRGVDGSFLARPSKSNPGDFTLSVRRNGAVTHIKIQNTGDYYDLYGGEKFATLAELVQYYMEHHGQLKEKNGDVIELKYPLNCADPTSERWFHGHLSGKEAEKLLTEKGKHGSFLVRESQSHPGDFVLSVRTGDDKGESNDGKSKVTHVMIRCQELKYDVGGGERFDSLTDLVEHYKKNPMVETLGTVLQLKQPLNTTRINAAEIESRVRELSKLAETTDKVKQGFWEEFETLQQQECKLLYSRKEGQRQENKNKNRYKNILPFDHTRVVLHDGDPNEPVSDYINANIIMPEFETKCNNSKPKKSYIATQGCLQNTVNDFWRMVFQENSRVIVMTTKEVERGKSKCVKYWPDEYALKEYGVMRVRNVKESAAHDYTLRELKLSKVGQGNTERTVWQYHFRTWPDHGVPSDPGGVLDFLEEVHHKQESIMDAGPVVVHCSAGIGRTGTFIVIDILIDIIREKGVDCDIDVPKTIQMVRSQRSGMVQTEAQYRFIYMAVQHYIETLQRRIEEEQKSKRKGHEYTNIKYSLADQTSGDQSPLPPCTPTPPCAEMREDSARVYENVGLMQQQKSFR
Experimental: In order to determine the nature of the inhibition, the phosphtase activity of Shp2 was assessed in the presence of increasing concentrations of Fumos. […] Since irreversible inhibitors generally show similar variation trend with non-competitive inhibitors in Lineweaver-Burk plot, next we investigated if the inhibition of Shp2 by Fumos is reversible. Unlike an irreversible inhibitor, a reversible inhibitor can dissociate from the enzyme. […] inhibition can be completely reversed by adding more substrates so that it reaches a much higher concentration than that of the inhibitor[31][32]. After incubation of the mixture containing Fumos and Shp2, we added 40-fold of normal amount of substrates. Sodium orthovanadate, a commonly used competitive inhibitor for PTPs, was used as a control.
(§1) The assay was set in wells of 96-well plate with a final volume of 100 μl of reaction mixture containing 10 mM of NaAc-HAc, 1 mM of ethylene diamine tetraacetic acid, 1 mM of DL-dithiothreitol and 2% of dimethyl sulfoxide, pH 5.5. Activity of the enzyme was assayed by incubating recombinant PTP protein or mutant PTP with various concentrations of Fumos in the mixture at 37 °C for 30 min. Absorbance at 405 nm was detected immediately after addition of varied concentrations of substrate, p-nitrophenyl phosphate (pNPP) to each corresponding well.

[2] = target: T2, Shp2-Y279A (Homo sapiens, UniProt Q06124, Y279A); test: Surface plasmon resonance analysis, Shp2-Y279A; assay type: binding
T2 sequence (Q06124 1-593 Y279A): T1 sequence (Q06124 1-593) with Y279A
Experimental: One small molecule (10 mM) was spotted on the 3D sensor chip. Positive and negative controls on the chip were monitored for binding kinetics to verify immobilization. All experiments were performed using Plexera’s Plex Array SPRi instrumentation, visualized using Instrument Control software (ICS) and analyzed using Plexera Data Explorer software.
Proteins were injected in the following order: Shp2 full-length protein (12 nM, 36 nM, 108 nM, 324 nM), Shp2 Y279A protein (35 nM, 70 nM,140 nM, 280 nM, 560 nM). Each protein was injected at a flow rate of 1 μl/sec. The association duration was 200 sec and dissociation duration was 300 sec. Regeneration between injections was performed with 600 μl of 10 mM glycine-HCl, pH = 2.0. The data were analyzed by Plexera Data Explorer software.

[3] = target: T3, Shp2 PTP domain (Homo sapiens, UniProt Q06124); test: in vitro PTP assay (pNPP), Shp2 PTP domain; assay type: biochemical
T3 sequence (Q06124 247-517 limits assumed): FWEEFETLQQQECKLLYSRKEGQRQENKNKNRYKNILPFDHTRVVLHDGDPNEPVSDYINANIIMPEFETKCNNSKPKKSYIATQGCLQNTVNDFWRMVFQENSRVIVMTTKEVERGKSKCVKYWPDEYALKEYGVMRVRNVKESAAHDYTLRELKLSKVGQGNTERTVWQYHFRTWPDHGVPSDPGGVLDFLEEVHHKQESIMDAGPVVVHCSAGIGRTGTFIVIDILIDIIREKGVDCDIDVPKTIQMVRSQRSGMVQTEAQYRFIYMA
Experimental: Plasmids for expression of His-tag fusion proteins of human PTP were constructed in PET-28a by PCR subcloning techniques. The constructions contain only the PTP domain except Full-length Shp2. Full-length Shp2 containing Tyr279-to-Ala mutant was generated by PCR-based mutagenesis. All constructs were verified by DNA sequencing. PTP-His fusion proteins were expressed in Escherichia coli BL21 and lysed in the buffer (50 mM NaH2PO4, 300 mM NaCl, 250 mM imidazole, 1 mM dithiothreitol plus 5% glycerol), purified with Ni-NTA Magnetic Agarose Beads (Qiagen). The His-tag recombinant purification protocol was carried out according to the purification under native conditions of the QIAexpress System.
as §1

[4] = SPR, Fumos immobilized, Shp2-Y279A injected

**Q.** With `CC[C@@H](C)C[C@@H](C)/C=C(C)/C=C/C=C/C=C(\C)C(=O)c1c(O)c(-c2ccc(O)cc2)cn(O)c1=O` [Fumos, Fumosorinone] as the compound, how does the Vmax ([1]; 4 μM fumosorinone, substrate pNPP) read?
**A.** 7.63 ± 0.42 S^−1

**Q.** What about the Vmax ([1]; 8 μM fumosorinone, substrate pNPP) of the same compound?
**A.** 2.73 ± 0.41 S^−1

**Q.** What about the type of inhibition ([1]; Lineweaver-Burk analysis) of the same compound?
**A.** classic noncompetitive inhibitor

**Q.** What about the Km ([1]; substrate pNPP, fit over 0, 4 and 8 μM fumosorinone) of the same compound?
**A.** 6.75 ± 0.84 mM

**Q.** And the “affinity of Shp2-Y279A relative to Shp2-WT” value ([2]; SPR KD comparison)?
**A.** nine-fold less affinity

**Q.** And the “Ka (association rate)” value [2, 4]?
**A.** 5.06 × 10^4 M^−1 S^−1

**Q.** What about the Kd [2, 4] of the same compound?
**A.** 0.368 µM

**Q.** What about the “Kd (dissociation rate)” value [2, 4] of the same compound?
**A.** 1.86 × 10^−2 S^−1

**Q.** And the IC50 [3]?
**A.** 6.31 ± 0.52 µM

**Q.** What about the IC50 selective ([3]; Shp2 relative to Shp2 PTP domain) of the same compound?
**A.** 1
